Data taken from PubChem BioAssay (NCI).
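Following 48 hours of exposure in 96-well plates, responses at five concentrations were used to interpolate endpoints linearly. At the TGI there is no net growth.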

Tests used:
Assay in all cases: inhibition of tumour cell growth, NCI panel, 48 h
LOX IMVI melanoma = system: LOX IMVI melanoma
KM12 colon = system: KM12 colon
PC-3 prostate = system: PC-3 prostate
TK-10 renal = system: TK-10 renal
786-0 renal = system: 786-0 renal
SF-268 CNS = system: SF-268 CNS
SF-539 CNS = system: SF-539 CNS
SK-MEL-28 melanoma = system: SK-MEL-28 melanoma
MDA-MB-231 breast = system: MDA-MB-231 breast
HCT-116 colon = system: HCT-116 colon
ACHN renal = system: ACHN renal
SNB-75 CNS = system: SNB-75 CNS
A549 NSCLC = system: A549 NSCLC
BT-549 breast = system: BT-549 breast
T-47D breast = system: T-47D breast
SR leukemia = system: SR leukemia
U251 CNS = system: U251 CNS
HOP-62 NSCLC = system: HOP-62 NSCLC
MDA-MB-435 = system: MDA-MB-435
MDA-N = system: MDA-N
SN12C renal = system: SN12C renal
IGROV1 ovarian = system: IGROV1 ovarian
NCI-H522 lung = system: NCI-H522 lung
HT29 colon = system: HT29 colon
DU-145 prostate = system: DU-145 prostate
A498 renal = system: A498 renal
RPMI-8226 leukemia = system: RPMI-8226 leukemia
NCI-H23 lung = system: NCI-H23 lung
NCI-H460 lung = system: NCI-H460 lung
COLO 205 colon = system: COLO 205 colon
NCI/ADR-RES ovarian = system: NCI/ADR-RES ovarian
NCI-H226 lung = system: NCI-H226 lung
SK-MEL-2 melanoma = system: SK-MEL-2 melanoma
UACC-257 melanoma = system: UACC-257 melanoma
OVCAR-4 ovarian = system: OVCAR-4 ovarian
SK-OV-3 ovarian = system: SK-OV-3 ovarian
OVCAR-5 ovarian = system: OVCAR-5 ovarian
SF-295 CNS = system: SF-295 CNS
K-562 leukemia = system: K-562 leukemia
HCC-2998 colon = system: HCC-2998 colon
UO-31 renal = system: UO-31 renal
M14 melanoma = system: M14 melanoma
SW-620 colon = system: SW-620 colon
MOLT-4 leukemia = system: MOLT-4 leukemia
CAKI-1 renal = system: CAKI-1 renal
SNB-19 CNS = system: SNB-19 CNS
UACC-62 melanoma = system: UACC-62 melanoma
SK-MEL-5 melanoma = system: SK-MEL-5 melanoma
MCF7 breast = system: MCF7 breast
RXF 393 renal = system: RXF 393 renal
EKVX NSCLC = system: EKVX NSCLC
HCT-15 colon = system: HCT-15 colon
OVCAR-8 ovarian = system: OVCAR-8 ovarian
MALME-3M melanoma = system: MALME-3M melanoma
HOP-92 NSCLC = system: HOP-92 NSCLC
HS 578T breast = system: HS 578T breast
CCRF-CEM leukemia = system: CCRF-CEM leukemia
HL-60(TB) leukemia = system: HL-60(TB) leukemia
OVCAR-3 ovarian = system: OVCAR-3 ovarian

C=C(C(=O)OC)[C@@H]1C[C@@H](OC(C)=O)C2=C[C@H](C[C@@]3(C)O[C@@H]3C3=CC(C)=C(O3)[C@H]1OC(C)=O)OC2=O
TGI (LOX IMVI melanoma): 41.8 µM
TGI (KM12 colon): 43.7 µM
TGI (PC-3 prostate): > 100 µM
TGI (TK-10 renal): 31.7 µM
TGI (786-0 renal): 49.1 µM
TGI (SF-268 CNS): > 100 µM
TGI (SF-539 CNS): 79 µM
TGI (SK-MEL-28 melanoma): 33.2 µM
TGI (MDA-MB-231 breast): 44.1 µM
TGI (HCT-116 colon): 24.3 µM
TGI (ACHN renal): 49.4 µM
TGI (SNB-75 CNS): > 100 µM
TGI (A549 NSCLC): > 100 µM
TGI (BT-549 breast): 31.3 µM
TGI (T-47D breast): 33.8 µM
TGI (SR leukemia): 37.6 µM
TGI (U251 CNS): 71.1 µM
TGI (HOP-62 NSCLC): 67.2 µM
TGI (MDA-MB-435): 37.9 µM
TGI (MDA-N): 50.8 µM
TGI (SN12C renal): 56.8 µM
TGI (IGROV1 ovarian): 57.1 µM
TGI (NCI-H522 lung): 5.83 µM
TGI (HT29 colon): 76.9 µM
TGI (DU-145 prostate): > 100 µM
TGI (A498 renal): 33.8 µM
TGI (RPMI-8226 leukemia): 21.4 µM
TGI (NCI-H23 lung): 35.5 µM
TGI (NCI-H460 lung): 64.5 µM
TGI (COLO 205 colon): 25.8 µM
TGI (NCI/ADR-RES ovarian): > 100 µM
TGI (NCI-H226 lung): > 100 µM
TGI (SK-MEL-2 melanoma): > 100 µM
TGI (UACC-257 melanoma): 44.3 µM
TGI (OVCAR-4 ovarian): > 100 µM
TGI (SK-OV-3 ovarian): > 100 µM
TGI (OVCAR-5 ovarian): 36.6 µM
TGI (SF-295 CNS): 88.5 µM
TGI (K-562 leukemia): 24.9 µM
TGI (HCC-2998 colon): 43 µM
TGI (UO-31 renal): 36.3 µM
TGI (M14 melanoma): 43.2 µM
TGI (SW-620 colon): 28.4 µM
TGI (MOLT-4 leukemia): 6.72 µM
TGI (CAKI-1 renal): 21.2 µM
TGI (SNB-19 CNS): > 100 µM
TGI (UACC-62 melanoma): 40.9 µM
TGI (SK-MEL-5 melanoma): 29.7 µM
TGI (MCF7 breast): 35.3 µM
TGI (RXF 393 renal): 44 µM
TGI (EKVX NSCLC): 38.9 µM
TGI (HCT-15 colon): > 100 µM
TGI (OVCAR-8 ovarian): > 100 µM
TGI (MALME-3M melanoma): 30.7 µM

Cc1c(N=C/C=C/c2ccccc2)c(=O)n(-c2ccccc2)n1C
TGI (LOX IMVI melanoma): 25 µM
TGI (KM12 colon): 77.2 µM
TGI (PC-3 prostate): > 100 µM
TGI (TK-10 renal): > 100 µM
TGI (SF-268 CNS): > 100 µM
TGI (SF-539 CNS): 64.4 µM
TGI (SK-MEL-28 melanoma): 39.8 µM
TGI (MDA-MB-231 breast): > 100 µM
TGI (HCT-116 colon): 29.2 µM
TGI (ACHN renal): > 100 µM
TGI (A549 NSCLC): > 100 µM
TGI (BT-549 breast): 58.1 µM
TGI (T-47D breast): 62.4 µM
TGI (U251 CNS): 73.3 µM
TGI (HOP-92 NSCLC): > 100 µM
TGI (HOP-62 NSCLC): 95.8 µM
TGI (MDA-MB-435): > 100 µM
TGI (MDA-N): 54 µM
TGI (SN12C renal): 43.4 µM
TGI (IGROV1 ovarian): > 100 µM
TGI (NCI-H522 lung): > 100 µM
TGI (HT29 colon): > 100 µM
TGI (DU-145 prostate): > 100 µM
TGI (A498 renal): 87.2 µM
TGI (RPMI-8226 leukemia): 38.6 µM
TGI (HS 578T breast): 69.8 µM
TGI (NCI-H23 lung): 69.8 µM
TGI (NCI-H460 lung): > 100 µM
TGI (COLO 205 colon): > 100 µM
TGI (NCI/ADR-RES ovarian): 79.6 µM
TGI (NCI-H226 lung): 38 µM
TGI (SK-MEL-2 melanoma): > 100 µM
TGI (UACC-257 melanoma): > 100 µM
TGI (OVCAR-4 ovarian): 40.9 µM
TGI (CCRF-CEM leukemia): 30.1 µM
TGI (SK-OV-3 ovarian): > 100 µM
TGI (OVCAR-5 ovarian): > 100 µM
TGI (SF-295 CNS): 40.6 µM
TGI (UO-31 renal): > 100 µM
TGI (M14 melanoma): 38.9 µM
TGI (SW-620 colon): 58.4 µM
TGI (MOLT-4 leukemia): 83.8 µM
TGI (HL-60(TB) leukemia): 48.2 µM
TGI (CAKI-1 renal): > 100 µM
TGI (SNB-19 CNS): > 100 µM
TGI (UACC-62 melanoma): 36 µM
TGI (SK-MEL-5 melanoma): 31 µM
TGI (OVCAR-3 ovarian): 67.9 µM
TGI (MCF7 breast): 60.5 µM
TGI (RXF 393 renal): > 100 µM
TGI (EKVX NSCLC): 81.8 µM
TGI (HCT-15 colon): > 100 µM
TGI (OVCAR-8 ovarian): 54.4 µM
TGI (MALME-3M melanoma): 62.9 µM
